Laboratory results: patent US9340590B2 (priority 2011, dated 2016)
Read-outs that look alike come from different tables or passages of the source. Positions of bridges follow the written chain, without caps; N, C: chain ends. Residues, ends and D or L forms follow the SMILES beside them.

How the values were obtained:
Assay in all cases: cell-based
hNav1.7 = hNav1.7 (Homo sapiens, UniProt Q15858); type: cell-based
hNav1.5 = hNav1.5 (Homo sapiens, UniProt Q14524)
hNav1.3 = hNav1.3 (Homo sapiens, UniProt Q9NY46); conditions: IonWorks Quattro, read-out: IWQ Use Nav1.3
hNav1.3, sequence (Q9NY46 whole entry, looked up): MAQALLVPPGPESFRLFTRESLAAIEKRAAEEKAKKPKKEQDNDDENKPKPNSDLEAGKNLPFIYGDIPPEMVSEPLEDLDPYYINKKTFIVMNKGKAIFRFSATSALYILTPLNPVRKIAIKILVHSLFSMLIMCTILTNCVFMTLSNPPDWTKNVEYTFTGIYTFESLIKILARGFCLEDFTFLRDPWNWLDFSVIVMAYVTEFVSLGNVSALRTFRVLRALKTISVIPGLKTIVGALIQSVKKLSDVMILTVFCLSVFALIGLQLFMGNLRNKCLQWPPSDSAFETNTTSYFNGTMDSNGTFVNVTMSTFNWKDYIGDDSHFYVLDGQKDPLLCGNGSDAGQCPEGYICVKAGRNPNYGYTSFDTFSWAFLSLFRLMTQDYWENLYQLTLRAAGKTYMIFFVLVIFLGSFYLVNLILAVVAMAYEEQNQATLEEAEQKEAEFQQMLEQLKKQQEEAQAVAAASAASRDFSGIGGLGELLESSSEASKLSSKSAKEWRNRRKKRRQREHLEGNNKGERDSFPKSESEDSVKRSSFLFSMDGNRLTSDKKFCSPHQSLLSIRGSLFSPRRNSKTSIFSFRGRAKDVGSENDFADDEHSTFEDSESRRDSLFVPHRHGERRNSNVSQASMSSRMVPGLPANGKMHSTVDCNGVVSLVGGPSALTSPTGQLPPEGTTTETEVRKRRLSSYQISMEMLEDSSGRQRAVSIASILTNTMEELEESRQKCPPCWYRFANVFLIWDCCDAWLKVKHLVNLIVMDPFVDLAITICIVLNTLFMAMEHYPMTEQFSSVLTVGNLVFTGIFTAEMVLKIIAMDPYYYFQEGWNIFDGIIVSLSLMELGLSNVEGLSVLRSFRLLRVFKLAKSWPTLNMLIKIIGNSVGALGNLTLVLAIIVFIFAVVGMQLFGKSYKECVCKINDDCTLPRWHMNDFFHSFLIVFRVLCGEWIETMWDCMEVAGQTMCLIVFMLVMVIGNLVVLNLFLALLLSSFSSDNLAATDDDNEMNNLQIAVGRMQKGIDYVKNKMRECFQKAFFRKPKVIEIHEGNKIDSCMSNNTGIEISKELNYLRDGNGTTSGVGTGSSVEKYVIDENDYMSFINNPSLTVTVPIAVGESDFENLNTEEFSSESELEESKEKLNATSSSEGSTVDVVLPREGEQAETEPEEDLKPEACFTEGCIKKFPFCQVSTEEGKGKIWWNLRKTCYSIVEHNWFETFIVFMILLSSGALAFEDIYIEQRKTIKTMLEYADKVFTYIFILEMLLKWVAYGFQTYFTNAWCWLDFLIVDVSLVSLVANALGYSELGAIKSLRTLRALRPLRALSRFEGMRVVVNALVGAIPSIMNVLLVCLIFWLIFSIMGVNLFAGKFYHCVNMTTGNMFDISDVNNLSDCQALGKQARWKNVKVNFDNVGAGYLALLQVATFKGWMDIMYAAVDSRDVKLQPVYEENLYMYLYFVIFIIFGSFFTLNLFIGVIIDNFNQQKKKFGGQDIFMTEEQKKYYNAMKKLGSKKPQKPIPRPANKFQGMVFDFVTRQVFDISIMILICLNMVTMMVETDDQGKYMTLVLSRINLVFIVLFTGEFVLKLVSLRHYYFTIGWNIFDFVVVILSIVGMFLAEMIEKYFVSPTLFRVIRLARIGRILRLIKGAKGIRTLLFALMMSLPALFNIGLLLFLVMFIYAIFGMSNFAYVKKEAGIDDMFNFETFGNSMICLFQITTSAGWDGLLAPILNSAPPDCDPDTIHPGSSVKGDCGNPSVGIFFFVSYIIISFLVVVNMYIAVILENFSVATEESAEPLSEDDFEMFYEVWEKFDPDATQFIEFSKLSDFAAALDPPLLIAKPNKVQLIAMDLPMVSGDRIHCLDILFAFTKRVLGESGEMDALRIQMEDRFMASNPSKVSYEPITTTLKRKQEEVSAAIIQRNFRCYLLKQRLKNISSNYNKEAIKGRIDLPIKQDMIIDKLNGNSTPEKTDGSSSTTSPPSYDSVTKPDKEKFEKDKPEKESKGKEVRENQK

[1] = IonWorks Quattro, Use, read-out: IWQ Use Nav1.5
[2] = IonWorks Quattro, Use, read-out: IWQ Use Nav1.7

hNav1.7, sequence (Q15858 whole entry, looked up): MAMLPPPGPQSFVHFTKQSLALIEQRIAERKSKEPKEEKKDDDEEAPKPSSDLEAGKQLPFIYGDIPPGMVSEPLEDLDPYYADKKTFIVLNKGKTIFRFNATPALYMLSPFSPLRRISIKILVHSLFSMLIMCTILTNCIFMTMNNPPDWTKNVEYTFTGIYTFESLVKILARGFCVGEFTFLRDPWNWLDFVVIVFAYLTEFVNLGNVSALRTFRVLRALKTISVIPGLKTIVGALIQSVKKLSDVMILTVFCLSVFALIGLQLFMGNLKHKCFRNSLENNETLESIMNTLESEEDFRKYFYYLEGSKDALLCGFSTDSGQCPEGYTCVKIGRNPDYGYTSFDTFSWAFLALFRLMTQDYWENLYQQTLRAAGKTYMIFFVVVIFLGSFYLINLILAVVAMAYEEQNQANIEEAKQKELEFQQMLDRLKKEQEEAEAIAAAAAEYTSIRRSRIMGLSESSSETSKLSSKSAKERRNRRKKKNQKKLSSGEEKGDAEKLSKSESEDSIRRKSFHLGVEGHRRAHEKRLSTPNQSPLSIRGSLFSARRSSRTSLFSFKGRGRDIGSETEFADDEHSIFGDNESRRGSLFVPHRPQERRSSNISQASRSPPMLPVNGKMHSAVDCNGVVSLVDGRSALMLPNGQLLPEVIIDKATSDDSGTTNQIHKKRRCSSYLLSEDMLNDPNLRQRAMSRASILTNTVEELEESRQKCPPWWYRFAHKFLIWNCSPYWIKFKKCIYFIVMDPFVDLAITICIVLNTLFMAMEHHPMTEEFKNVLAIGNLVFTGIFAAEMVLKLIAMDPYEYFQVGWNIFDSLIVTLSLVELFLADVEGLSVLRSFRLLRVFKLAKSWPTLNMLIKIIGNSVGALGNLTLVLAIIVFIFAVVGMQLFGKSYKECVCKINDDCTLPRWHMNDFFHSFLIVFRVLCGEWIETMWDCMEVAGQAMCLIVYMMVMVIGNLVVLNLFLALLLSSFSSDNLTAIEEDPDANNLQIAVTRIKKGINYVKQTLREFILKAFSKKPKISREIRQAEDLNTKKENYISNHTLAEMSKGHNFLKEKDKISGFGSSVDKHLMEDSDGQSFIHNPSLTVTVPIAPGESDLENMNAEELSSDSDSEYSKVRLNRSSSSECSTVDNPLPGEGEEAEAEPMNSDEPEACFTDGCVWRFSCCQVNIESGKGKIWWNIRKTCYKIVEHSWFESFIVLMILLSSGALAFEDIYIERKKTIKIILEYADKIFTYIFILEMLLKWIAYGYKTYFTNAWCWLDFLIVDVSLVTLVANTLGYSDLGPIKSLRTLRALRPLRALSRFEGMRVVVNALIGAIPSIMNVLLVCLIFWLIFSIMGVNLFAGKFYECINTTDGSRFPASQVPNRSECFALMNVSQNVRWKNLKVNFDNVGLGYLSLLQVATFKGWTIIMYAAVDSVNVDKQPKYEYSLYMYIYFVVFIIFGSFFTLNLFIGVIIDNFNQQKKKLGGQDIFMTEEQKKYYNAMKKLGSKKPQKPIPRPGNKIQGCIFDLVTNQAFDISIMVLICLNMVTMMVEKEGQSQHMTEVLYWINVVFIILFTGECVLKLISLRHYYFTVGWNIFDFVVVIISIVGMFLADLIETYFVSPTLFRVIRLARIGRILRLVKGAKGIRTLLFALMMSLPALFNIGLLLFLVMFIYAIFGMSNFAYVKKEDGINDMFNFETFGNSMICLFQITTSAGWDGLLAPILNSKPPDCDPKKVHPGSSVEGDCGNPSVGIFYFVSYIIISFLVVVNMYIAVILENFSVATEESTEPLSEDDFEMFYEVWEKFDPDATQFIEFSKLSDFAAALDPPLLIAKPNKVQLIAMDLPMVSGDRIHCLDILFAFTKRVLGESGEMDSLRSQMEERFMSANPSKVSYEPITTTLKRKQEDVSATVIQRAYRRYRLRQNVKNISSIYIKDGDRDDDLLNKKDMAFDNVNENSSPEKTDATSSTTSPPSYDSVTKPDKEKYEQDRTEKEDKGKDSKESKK

SMILES: CC[C@H](C)[C@@H]1NC(=O)[C@@H]2CSSC[C@@H]3NC(=O)[C@H](C(C)C)NC(=O)[C@H](CC(C)C)NC(=O)[C@H](CC(N)=O)NC(=O)[C@@H]4CCCN4C(=O)[C@H](CCCNC(=N)N)NC(=O)[C@H](CSSC[C@H](NC(=O)[C@@H](N)CC(=O)O)C(=O)N[C@@H](CC(C)C)C(=O)NCC(=O)N[C@@H](Cc4ccccc4)C(=O)N[C@@H](CCSC)C(=O)N[C@@H](CCCNC(=N)N)C(=O)N[C@@H](CCCCN)C(=O)N2)NC(=O)[C@H](CSSC[C@@H](C(=O)N[C@@H](CCCCN)C(=O)N[C@@H](Cc2ccc(O)cc2)C(=O)N[C@H](C(=O)N[C@@H](Cc2ccccc2)C(N)=O)C(C)C)NC(=O)[C@H](Cc2c[nH]c4ccccc24)NC(=O)[C@H](CCCCN)NC(=O)[C@H](Cc2c[nH]cn2)NC(=O)[C@H]([C@@H](C)O)NC(=O)[C@H](CCCNC(=N)N)NC(=O)[C@H](CO)NC3=O)NC(=O)[C@H](CCC(=O)O)NC(=O)[C@H](CC(=O)O)NC(=O)[C@H](CC(N)=O)NC(=O)[C@H](CC(=O)O)NC(=O)[C@@H]2CCCN2C1=O [compound 28] (H-DCLGFMRKCIPDNDECCRPNLVCSRTHKWCKYVF-NH2; disulfide 2-17, 9-23, 16-30)
- IC50 (hNav1.7): 0.59 µM
- IC50 (hNav1.5; [1]): 12.1 µM
- IC50 (hNav1.3; Use): 0.49 µM

SMILES: CC[C@H](C)[C@@H]1NC(=O)[C@@H]2CSSC[C@@H]3NC(=O)[C@H](C(C)C)NC(=O)[C@H](CC(C)C)NC(=O)[C@H](CC(N)=O)NC(=O)[C@@H]4CCCN4C(=O)[C@H](CCCNC(=N)N)NC(=O)[C@H](CSSC[C@H](NC(=O)[C@@H](N)CC(=O)O)C(=O)N[C@@H](CC(C)C)C(=O)NCC(=O)N[C@@H](Cc4ccccc4)C(=O)N[C@@H](CCSC)C(=O)N[C@@H](CCCNC(=N)N)C(=O)N[C@@H](CCCCN)C(=O)N2)NC(=O)[C@H](CSSC[C@@H](C(=O)N[C@@H](CCCCN)C(=O)N[C@@H](Cc2ccc(O)cc2)C(=O)N[C@H](C(=O)N[C@@H](Cc2ccccc2)C(N)=O)C(C)C)NC(=O)[C@H](Cc2c[nH]c4ccccc24)NC(=O)[C@H](CCCCN)NC(=O)[C@H](CCC(=O)O)NC(=O)[C@H]([C@@H](C)O)NC(=O)[C@H](CCCNC(=N)N)NC(=O)[C@H](CO)NC3=O)NC(=O)[C@H](CCCCN)NC(=O)[C@H](CC(=O)O)NC(=O)[C@H](CC(N)=O)NC(=O)[C@H](CC(=O)O)NC(=O)[C@@H]2CCCN2C1=O [compound 29] (H-DCLGFMRKCIPDNDKCCRPNLVCSRTEKWCKYVF-NH2; disulfide 2-17, 9-23, 16-30)
- IC50 (hNav1.7; Table 23, IonWorks Quattro, use, […], read-out: IWQ Use Nav1.7): 8.54 µM
- IC50 (hNav1.5; Table 23, IonWorks Quattro, use, […], read-out: IWQ Use Nav1.5): 15.2 µM
- IC50 (hNav1.3; Table 23, use, […]): 12.3 µM

SMILES: CC[C@H](C)[C@@H]1NC(=O)[C@@H]2CSSC[C@@H]3NC(=O)[C@H](C(C)C)NC(=O)[C@H](CC(C)C)NC(=O)[C@H](CC(N)=O)NC(=O)[C@@H]4CCCN4C(=O)[C@H](CCCNC(=N)N)NC(=O)[C@H](CSSC[C@H](NC(=O)[C@@H](N)CC(=O)O)C(=O)N[C@@H](CC(C)C)C(=O)NCC(=O)N[C@@H](Cc4ccccc4)C(=O)N[C@@H](CCSC)C(=O)N[C@@H](CCCNC(=N)N)C(=O)N[C@@H](CCCCN)C(=O)N2)NC(=O)[C@H](CSSC[C@@H](C(=O)N[C@@H](CCC(=O)O)C(=O)N[C@@H](Cc2ccc(O)cc2)C(=O)N[C@H](C(=O)N[C@@H](Cc2ccccc2)C(N)=O)C(C)C)NC(=O)[C@H](Cc2c[nH]c4ccccc24)NC(=O)[C@H](CCCCN)NC(=O)[C@H](Cc2cnc[nH]2)NC(=O)[C@H]([C@@H](C)O)NC(=O)[C@H](CCCNC(=N)N)NC(=O)[C@H](CO)NC3=O)NC(=O)[C@H](CCCCN)NC(=O)[C@H](CC(=O)O)NC(=O)[C@H](CC(N)=O)NC(=O)[C@H](CC(=O)O)NC(=O)[C@@H]2CCCN2C1=O [compound 31] (H-DCLGFMRKCIPDNDKCCRPNLVCSRTHKWCEYVF-NH2; disulfide 2-17, 9-23, 16-30)
- IC50 (hNav1.7; Table 25, IonWorks Quattro, use, […], read-out: IWQ Use Nav1.7): 23 µM
- IC50 (hNav1.5; Table 25, IonWorks Quattro, use, […], read-out: IWQ Use Nav1.5): 21.7 µM
- IC50 (hNav1.3; Table 25, use, […]): 13.1 µM

SMILES: CC[C@H](C)[C@@H]1NC(=O)[C@@H]2CSSC[C@@H]3NC(=O)[C@H](C(C)C)NC(=O)[C@H](CC(C)C)NC(=O)[C@H](CC(N)=O)NC(=O)[C@@H]4CCCN4C(=O)[C@H](CCCNC(=N)N)NC(=O)[C@H](CSSC[C@H](NC(=O)[C@@H](N)CC(=O)O)C(=O)N[C@@H](CC(C)C)C(=O)NCC(=O)N[C@@H](Cc4ccccc4)C(=O)N[C@@H](CCSC)C(=O)N[C@@H](CCCNC(=N)N)C(=O)N[C@@H](CCCCN)C(=O)N2)NC(=O)[C@H](CSSC[C@@H](C(=O)N[C@@H](CCCCN)C(=O)N[C@@H](Cc2ccc(O)cc2)C(=O)N[C@H](C(=O)N[C@@H](CCC(=O)O)C(N)=O)C(C)C)NC(=O)[C@H](Cc2c[nH]c4ccccc24)NC(=O)[C@H](CCCCN)NC(=O)[C@H](Cc2cnc[nH]2)NC(=O)[C@H]([C@@H](C)O)NC(=O)[C@H](CCCNC(=N)N)NC(=O)[C@H](CO)NC3=O)NC(=O)[C@H](CCCCN)NC(=O)[C@H](CC(=O)O)NC(=O)[C@H](CC(N)=O)NC(=O)[C@H](CC(=O)O)NC(=O)[C@@H]2CCCN2C1=O [compound 34] (H-DCLGFMRKCIPDNDKCCRPNLVCSRTHKWCKYVE-NH2; disulfide 2-17, 9-23, 16-30)
- IC50 (hNav1.7; IonWorks Quattro, use-dependent, […], read-out: IWQ Use Nav1.7): 17 µM
- IC50 (hNav1.5; IWQ Use Nav1.5 (μM)): 16.8 µM
- IC50 (hNav1.3; use-dependent, […]): 11.2 µM

SMILES: CC[C@H](C)[C@@H]1NC(=O)[C@@H]2CSSC[C@@H]3NC(=O)[C@H](C(C)C)NC(=O)[C@H](CC(C)C)NC(=O)[C@H](CC(N)=O)NC(=O)[C@@H]4CCCN4C(=O)[C@H](CCCNC(=N)N)NC(=O)[C@H](CSSC[C@H](NC(=O)[C@@H](N)CC(=O)O)C(=O)N[C@@H](CC(C)C)C(=O)NCC(=O)N[C@@H](Cc4ccccc4)C(=O)N[C@@H](CCSC)C(=O)N[C@@H](CCCNC(=N)N)C(=O)N[C@@H](CCCCN)C(=O)N2)NC(=O)[C@H](CSSC[C@@H](C(=O)N[C@@H](CCCCN)C(=O)N[C@@H](Cc2ccc(O)cc2)C(=O)N[C@H](C(=O)N[C@@H](Cc2ccccc2)C(=O)N[C@@H](CCC(=O)O)C(N)=O)C(C)C)NC(=O)[C@H](Cc2c[nH]c4ccccc24)NC(=O)[C@H](CCCCN)NC(=O)[C@H](Cc2c[nH]cn2)NC(=O)[C@H]([C@@H](C)O)NC(=O)[C@H](CCCNC(=N)N)NC(=O)[C@H](CO)NC3=O)NC(=O)[C@H](CCCCN)NC(=O)[C@H](CC(=O)O)NC(=O)[C@H](CC(N)=O)NC(=O)[C@H](CC(=O)O)NC(=O)[C@@H]2CCCN2C1=O [compound 35]
- IC50 (hNav1.7; IonWorks Quattro, use-dependent, […], read-out: IWQ Use Nav1.7 (μm)): 4.47 µM
- IC50 (hNav1.5; IWQ Use Nav1.5 (μM)): 19.6 µM
- IC50 (hNav1.3; use-dependent, […]): 2.47 µM

SMILES: CSCC[C@@H]1NC(=O)[C@H](Cc2ccccc2)NC(=O)CNC(=O)[C@H](CC(C)C)NC(=O)[C@@H](NC(=O)[C@@H](N)CC(=O)O)CSSC[C@@H]2NC(=O)[C@@H]3CSSC[C@@H](C(=O)N[C@@H](CCCCN)C(=O)N[C@@H](Cc4ccc(O)cc4)C(=O)N[C@H](C(=O)N[C@@H](Cc4ccccc4)C(N)=O)C(C)C)NC(=O)[C@H](Cc4c[nH]c5ccccc45)NC(=O)[C@H](CCCCN)NC(=O)[C@H](Cc4cnc[nH]4)NC(=O)[C@H]([C@@H](C)O)NC(=O)[C@H](CCCNC(=N)N)NC(=O)[C@H](CO)NC(=O)[C@H](CSSC[C@H](NC(=O)[C@H](CCCCN)NC(=O)[C@H](CCCNC(=N)N)NC1=O)C(=O)N[C@@H](CCCCN)C(=O)N1CCC[C@H]1C(=O)N[C@@H](CC(=O)O)C(=O)N[C@@H](CC(N)=O)C(=O)N[C@@H](CC(=O)O)C(=O)N[C@@H](CCCCN)C(=O)N3)NC(=O)[C@H](C(C)C)NC(=O)[C@H](CC(C)C)NC(=O)[C@H](CC(N)=O)NC(=O)[C@@H]1CCCN1C(=O)[C@H](CCCNC(=N)N)NC2=O [compound 41] (H-DCLGFMRKCKPDNDKCCRPNLVCSRTHKWCKYVF-NH2; disulfide 2-17, 9-23, 16-30)
- IC50 (hNav1.7; [2]): 0.24 µM
- IC50 (hNav1.5; [1]): 9 µM
- IC50 (hNav1.3; Use): 0.15 µM

SMILES: CC[C@H](C)[C@@H]1NC(=O)[C@@H]2CSSC[C@@H]3NC(=O)[C@H](C(C)C)NC(=O)[C@H](CC(C)C)NC(=O)[C@H](CC(N)=O)NC(=O)[C@@H]4CCCN4C(=O)[C@H](CCCNC(=N)N)NC(=O)[C@H](CSSC[C@H](NC(=O)[C@@H](N)CC(=O)O)C(=O)N[C@@H](CC(C)C)C(=O)NCC(=O)N[C@@H](Cc4ccccc4)C(=O)N[C@@H](CCSC)C(=O)N[C@@H](CCCNC(=N)N)C(=O)N[C@@H](CCCCN)C(=O)N2)NC(=O)[C@H](CSSC[C@@H](C(=O)N[C@@H](CCCCN)C(=O)N[C@@H](Cc2ccc(O)cc2)C(=O)N[C@H](C(=O)N[C@@H](Cc2ccccc2)C(N)=O)C(C)C)NC(=O)[C@H](Cc2c[nH]c4ccccc24)NC(=O)[C@H](CCCCN)NC(=O)[C@H](Cc2cnc[nH]2)NC(=O)[C@H]([C@@H](C)O)NC(=O)[C@H](CCCNC(=N)N)NC(=O)[C@H](CO)NC3=O)NC(=O)[C@H](CCCCN)NC(=O)[C@H](CC(=O)O)NC(=O)[C@H](CC(N)=O)NC(=O)[C@H](CC(=O)O)NC(=O)[C@H](C)NC1=O [compound 46] (H-DCLGFMRKCIADNDKCCRPNLVCSRTHKWCKYVF-NH2; disulfide 2-17, 9-23, 16-30)
- IC50 (hNav1.7; [2]): 0.21 µM
- IC50 (hNav1.5; [1]): 16.1 µM
- IC50 (hNav1.3; Use): 0.18 µM
